Here are results for eleven compounds from PubChem BioAssay AID651962 (The Scripps Research Institute Molecular Screening Center, 2012).

The source made the active and inactive calls. The rule behind the calls is not given here. A value given as a limit tells only on which side of the number the result lay.

This assay deals with Receptor-interacting serine/threonine-protein kinase 2 (Homo sapiens) (UniProt O43353). Kind of assay: NOD2-RIPK2 binding disruptor potency, late-stage follow-up, cell-based, fluorescence (AID 651962). The note with it: cell-based NOD2-RIPK2 interaction, fluorescence read-out.
Sequence of Receptor-interacting serine/threonine-protein kinase 2 (Homo sapiens) (O43353 whole entry, looked up): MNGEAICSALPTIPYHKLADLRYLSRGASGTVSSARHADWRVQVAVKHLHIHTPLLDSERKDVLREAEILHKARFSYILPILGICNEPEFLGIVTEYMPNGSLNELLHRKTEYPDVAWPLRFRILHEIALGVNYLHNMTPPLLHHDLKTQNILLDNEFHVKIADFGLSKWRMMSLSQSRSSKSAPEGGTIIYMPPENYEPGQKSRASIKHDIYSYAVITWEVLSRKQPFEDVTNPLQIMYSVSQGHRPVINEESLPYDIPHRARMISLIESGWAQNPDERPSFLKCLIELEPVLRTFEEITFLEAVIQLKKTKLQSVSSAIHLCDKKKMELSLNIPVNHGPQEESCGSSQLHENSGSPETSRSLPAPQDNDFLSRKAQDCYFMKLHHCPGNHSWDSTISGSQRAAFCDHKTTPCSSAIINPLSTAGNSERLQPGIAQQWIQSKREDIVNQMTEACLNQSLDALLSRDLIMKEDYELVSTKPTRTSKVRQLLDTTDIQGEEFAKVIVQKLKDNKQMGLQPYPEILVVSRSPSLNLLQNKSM
As for `Cc1cc(S(=O)(=O)N2CCCCCC2)ccc1F`, the IC50 was > 49.8 µM (inactive). In the case of `COc1ccc(C(C[N+](=O)[O-])n2nc(C)cc2C)cc1` (stereo unspecified) it was 3.81 µM. In the case of `O=S(=O)(c1ccc(F)cc1)N1CCCCCC1` it was > 49.8 µM (inactive); in that of `Cc1ccc(C(C[N+](=O)[O-])n2nc(C)cc2C)cc1` (stereo unspecified), 2.97 µM; in that of `O=[N+]([O-])c1cccc(S(=O)(=O)N2CCCCCC2)c1`, > 49.8 µM (inactive).

As to `Cc1nc([N+](=O)[O-])c(Br)n1Cc1ccccc1`, the IC50 entry was “inactive”. With `Cc1ncc([N+](=O)[O-])n1Cc1ccc(Cl)c(Cl)c1`, the IC50 was > 49.8 µM (inactive).

For the compound `O=S(=O)(c1ccccc1)N1CCCCCC1`, the IC50 is > 49.8 µM (inactive). In the case of `Cc1nc([N+](=O)[O-])c(Br)n1Cc1ccc(Cl)c(Cl)c1` it was “inactive”; in that of `O=[N+]([O-])c1cc(S(=O)(=O)N2CCCCCC2)ccc1F`, 8.04 µM. In the case of `Cc1ccc(S(=O)(=O)N2CCCCCC2)cc1[N+](=O)[O-]` it was > 49.8 µM (inactive).

In general, IC50 refers to the concentration that inhibits the measured activity by half.
